Reference: patent US4552684A, “Dichroic dye and liquid crystalline composition for color display” (Mitsui Toatsu Chemicals, Inc., priority 1983, dated 1985)

How the values were obtained:
Assay type in all cases: physicochemical
[1] = solubility of dye in liquid crystals E-8; settings: for Solubility: in liquid crystals E-8 at 25° C.
Experimental: This is the solubility (% by weight) of each dye in liquid crystals E-8 (made by Merck & Co.) at 25° C.

[2] = light fastness (total current after exposure of cell to solar light for 200 hours); settings: for Light fastness: 0.5% by weight dye in E-8, solar light 200 hours, rectangular wave 6Vp-p, 32 Hz, total current
Experimental: 0.5% by weight of each dye was dissolved in the liquid crystals E-8, and the solution was sealed into a liquid crystal wall having a gap of 10 microns and including a pair of facing transparent electrodes with an area of 1.0 cm^2. The cell was exposed to solar light for 200 hours. Then, a voltage of a rectangular wave form (6Vp-p, 32 Hz) was applied, and the total current was measured (μA/cm^2).

[3] = dichroic ratio of dye dissolved in liquid crystals (homogeneously aligned 10 micron cell); settings: for Dichroic ratio in liquid crystals E-8: Table 1 method: 1.0% by weight dye, 10 micron gap
Experimental: The dichroic ratio is determined as follows:
The cell was placed in the light path of a spectro-photometer. Straight polarized light parallel to the alignment of the liquid crystals was applied to the cell, and the absorbance ([…] ) was measured. Furthermore, straight polarized light at right angles to the alignment of the liquid crystals was applied, and the absorbance ([…] ) was measured. The dichroic ratio was calculated from the following equation. [formula]

color of dye in toluene = assay: color of dye in toluene
[4] = maximum absorption wavelength of dye in liquid crystals
Experimental: The crude dye was purified by the same column chromatographic technique as in Example 1 to give a blue dye having a melting point of 155° to 157° C. (Dye No.19 in Table 1). The dichroic ratio of the dye was measured in the liquid crystals E-8 in the same way as described above with regard to Table 1, and found to be 10.3 (λmax 616 nm). […] When liquid crystals ZLI-1840 were used instead of the liquid crystals E-8, the dichroic ratio of the dye was 10.8 (λmax 612 nm). When liquid crystals ZLI-1275 were used, the dichroic ratio was 10.1 (λmax 616 nm).

[5] = dichroic ratio and maximum absorption wavelength in cyanobiphenyl/cyanoterphenyl liquid crystal mixture
Experimental: 0.1 Part by weight of the dye No. 8 in Table 1 was dissolved in 10 parts by weight of a liquid crystal mixture composed of 43% of 4-n-pentyl-4'-cyano-biphenyl, 17% of 4-n-propoxy-4'-cyanobiphenyl, 13% of 4-n-pentoxy-4'-cyanobiphenyl, 17% of 4-n-octoxy-4'-cyanobiphenyl and 10% of 4-n-pentyl-4'-cyanoterphenyl. The resulting color liquid crystal mixture was sealed into a glass cell having a gap of 10 microns which had been subjected to homogeneous aligning treatment. The maximum absorption wavelength was 512 nm and the dichroic ratio was 10.2. A display device obtained by sealing this color liquid crystal mixture into a glass liquid crystal display element of the same structure as above including transparent electrodes assumed a red color entirely in the absence of a voltage applied, and when a voltage was applied, only the part of the electrodes became nearly colorless, thus showing a good contrast.

SMILES	Dichroic ratio in liquid crystals E-8 [3]	Color in toluene (color of dye in toluene)	other results
CN(C)c1ccc(N=Nc2ccc(N=Nc3ccccc3)cc2)cc1 [A, reference compound]	–	–	Solubility [1]: 1.1 % by weight; Light fastness [2]: 4.2 μA/cm^2
CCCCc1ccc(Nc2cccc3c2C(=O)c2cccc(Nc4ccc(CCCC)cc4)c2C3=O)cc1 [B, reference compound]	–	–	Solubility [1]: 0.7 % by weight; Light fastness [2]: 3.6 μA/cm^2
Nc1c2c(c(O)c3oc(C4CCCCC4)nc13)C(=O)c1ccccc1C2=O [C, reference compound]	–	–	Solubility [1]: 0.4 % by weight
CCCCC1CCC(c2nc3c(N)c4c(c(O)c3o2)C(=O)c2ccccc2C4=O)CC1 (centres unmarked) [Dye No. 1]	9.5	Red	–
CCCCCCCCCC1CCC(c2nc3c(N)c4c(c(O)c3o2)C(=O)c2c(N)cccc2C4=O)CC1 (centres unmarked) [Dye No. 2]	8.2	Violet	–
CCCCCOC(=O)C1CCC(c2nc3cc4c(c(O)c3o2)C(=O)c2c(O)ccc(O)c2C4=O)CC1 (centres unmarked) [Dye No. 3]	9.3	Orange	–
CCCCC[C@H]1CC[C@H](c2nc3cc4c(c(O)c3o2)C(=O)c2ccccc2C4=O)CC1 [Dye No. 4]	7.2	Yellow	–
CC(C)(C)c1ccc(C2CCC(c3nc4c(N)c5c(c(O)c4o3)C(=O)c3ccccc3C5=O)CC2)cc1 (centres unmarked) [Dye No. 5]	10.1	Red	–
CCCCOCCC1CCC(c2nc3c(Br)c4c(c(O)c3o2)C(=O)c2ccccc2C4=O)CC1 (centres unmarked) [Dye No. 6]	6.8	Orange	–
CC(CCC1CCC(c2nc3c(O)c4c(c(O)c3o2)C(=O)c2ccccc2C4=O)CC1)CC(C)(C)C (centres unmarked) [Dye No. 7]	8.1	Orange	–
CCCCCC1CCC(c2nc3c(N)c4c(c(O)c3o2)C(=O)c2ccccc2C4=O)CC1 (centres unmarked) [Dye No. 8]	9.5	Red	–
CCCCCCCCCCCCC1CCC(c2nc3c(N)c4c(c(O)c3o2)C(=O)c2ccccc2C4=O)CC1 (centres unmarked) [Dye No. 9]	9.3	Red	–
CCCCCC1CCC(c2nc3c(N)c4c(c(N)c3o2)C(=O)c2ccccc2C4=O)CC1 (centres unmarked) [Dye No. 10]	8.1	Reddish violet	–
CCCCCC1CCC(c2nc3cc4c(c(O)c3s2)C(=O)c2ccccc2C4=O)CC1 (centres unmarked) [Dye No. 11]	8.5	Yellow	–
CC(C)(C)C1CCC(c2nc3cc4c(c(O)c3s2)C(=O)c2ccccc2C4=O)CC1 (centres unmarked) [Dye No. 13]	7.8	Yellow	–
CCCCCCCCC1CCC(c2nc3c(N)c4c(c(O)c3o2)C(=O)c2c(N)ccc(O)c2C4=O)CC1 (centres unmarked) [Dye No. 14]	10.5	Blue	–

SMILES	Dichroic ratio in liquid crystals E-8 [3]	Color in toluene (color of dye in toluene)	other results
CCCCCCCCCC1CCC(c2nc3c(N)c4c(c(O)c3o2)C(=O)c2cc(C)ccc2C4=O)CC1 (centres unmarked) [Dye No. 15]	10.2	Red	–
CCCCCCCC1CCC(c2nc3c(O)c4c(c(N)c3o2)C(=O)c2ccccc2C4=O)CC1 (centres unmarked) [Dye No. 16]	8.0	Red	–
CCCCCC1CCC(c2nc3cc4c(c(NC)c3o2)C(=O)c2ccccc2C4=O)CC1 (centres unmarked) [Dye No. 17]	6.9	Orange	–
CCCCCC1CCC(c2nc3cc4c(c(O)c3o2)C(=O)c2c(O)ccc(O)c2C4=O)CC1 (centres unmarked) [Dye No. 18]	9.8	Orange	–
CC(CC[C@H]1CC[C@H](c2nc3c(N)c4c(c(O)c3o2)C(=O)c2c(N)ccc(O)c2C4=O)CC1)CC(C)(C)C (some centres unmarked) [Dye No. 19]	10.3	Blue	–
CCCCCCCC1CCC(c2nc3cc4c(c(O)c3o2)C(=O)c2c(NC)ccc(NC)c2C4=O)CC1 (centres unmarked) [Dye No. 20]	9.2	Blue	–
CCCCCC1CCC(c2nc3cc4c(c(O)c3o2)C(=O)c2ccc(CC(C)C)c(O)c2C4=O)CC1 (centres unmarked) [Dye No. 21]	8.1	Orange	–
CC(C)(C)CC(C)(C)[C@H]1CC[C@H](c2nc3c(N)c4c(c(O)c3o2)C(=O)c2c(O)cccc2C4=O)CC1 [Dye No. 22]	11.6	Reddish violet	–
CCCCOC(=O)C1CCC(c2nc3c(N)c4c(c(O)c3o2)C(=O)c2c(O)cccc2C4=O)CC1 (centres unmarked) [Dye No. 23]	8.2	Reddish violet	–
CCCCCCCC1CCC(c2nc3c(N)c4c(c(O)c3o2)C(=O)c2ccc(C(=O)OCCCC)cc2C4=O)CC1 (centres unmarked) [Dye No. 24]	8.6	Reddish violet	–
CCCCCCCC1CCC(c2nc3c(N)c4c(c(N)c3o2)C(=O)c2ccc(C(=O)OCCCC)cc2C4=O)CC1 (centres unmarked) [Dye No. 25]	9.3	Reddish violet	–
CCCCc1ccc(OC(=O)C2CCC(c3nc4c(Cl)c5c(c(O)c4o3)C(=O)c3c(Cl)ccc(O)c3C5=O)CC2)cc1 (centres unmarked) [Dye No. 26]	8.0	Orange	–
CCCCc1ccc(OC(=O)C2CCC(c3nc4c(N)c5c(c(O)c4o3)C(=O)c3c(N)ccc(O)c3C5=O)CC2)cc1 (centres unmarked) [Dye No. 27]	9.2	Blue	–
CC(CC[C@H]1CC[C@H](c2nc3c(N)c4c(c(O)c3o2)C(=O)c2c(N)ccc(O)c2C4=O)CC1)CC(C)(C)C (some centres unmarked) [No.19]	–	–	solubility in E-8 ([1]; liquid crystals E-8, temperature not stated (Example 5)): 7.2 % by weight; dichroic ratio ([3]; liquid crystals ZLI-1275): 10.1; dichroic ratio ([3]; liquid crystals ZLI-1840): 10.8; λmax ([4]; liquid crystals E-8): 616 nm; λmax ([4]; liquid crystals ZLI-1275): 616 nm; λmax ([4]; liquid crystals ZLI-1840): 612 nm
CCCCCC1CCC(c2nc3c(N)c4c(c(O)c3o2)C(=O)c2ccccc2C4=O)CC1 (centres unmarked) [No. 8]	–	–	Solubility [1]: 4.7 % by weight; solubility compared with known dyes A, B and C ([1]; liquid crystals E-8): higher solubility; dichroic ratio ([5]; 0.1 part dye in 10 parts cyanobiphenyl/cyanoterphenyl mixture (Example 4)): 10.2; maximum absorption wavelength ([5]; cyanobiphenyl/cyanoterphenyl mixture (Example 4)): 512 nm; Light fastness [2]: 2.0 μA/cm^2; light fastness compared with known dyes ([2]; as in Table 2): higher solubility and light fastness than known dyes A, B and C
CC(C)(C)CC(C)(C)[C@H]1CC[C@H](c2nc3c(N)c4c(c(O)c3o2)C(=O)c2c(O)cccc2C4=O)CC1 [No. 22]	–	–	solubility in liquid crystals E-8 ([1]; liquid crystals E-8, temperature not stated (Example 7)): 4.0%; dichroic ratio ([3]; liquid crystals ZLI-1840): 12.3
